Several values for one entry are separate records, joined by “and”; a condition that tells them apart may be missing. Identical values can stand only once. Entries after “also recorded” stand apart in the source; their conditions may differ. Like-named read-outs stand apart in the source and are kept apart here.

One series has as its system patients with OSA. The conditions noted are these: drug taken alone, cited from earlier work.
Series [1] has as its system OSA patients. The conditions noted are these: cited from earlier work.
The test system of series [2] is OSA patients. Conditions: for NREM (atomoxetine) and REM (oxybutynin) specific AHI / effect on ventilation during sleep / oxygen saturation / oxygen levels compared to placebo: each drug administered alone; for OSA severity (apnea hypopnea index, AHI): nine moderate-to-severe OSA patients, REM and NREM sleep.
Text: In a preliminary investigation, nine patients equipped with a pneumotachograph attached to an oronasal mask to measure ventilation and an esophageal catheter to estimate the arousal threshold, performed a sleep study on each of these 4 conditions: placebo, atomoxetine alone, oxybutynin alone and ato-oxy.
The test system of series [3] is OSA patients; normal controls. The conditions noted are these: cited from earlier work.
Series [4] deals with subjects with and without OSA. The conditions noted are these: cited from earlier work.
For series [5], the system named is OSA patients. Put plainly: Atomoxetine plus pimavanserin sleep study in 5 OSA patients (Example 4). The format is in vivo, human. Conditions: inferred from combination effect and atomoxetine-alone reduction. As for the experimental part:
We administered the recently-approved selective 5-HT2A inverse agonist pimavanserin 34 mg to block the EEG arousal response to CO2 in association with atomoxetine 80 mg and measured the effect of this combination on OSA severity, arousal threshold and collapsibility in 5 patients. These doses were chosen as they are the usual effective doses for attention-deficit disorder and delusion-hallucinations in patients with Parkinson's disease, respectively, based on prescribing information. Patients were also instrumented with an oronasal mask, and in 4/5 patients, esophageal catheter and genioglossus intramuscular electrodes. […] The effect on the arousal threshold is noteworthy, because pimavenserin was administered together with atomoxetine, a wake-promoting drug that, as described above, caused a reduction in arousal threshold by ˜18% compared to placebo in OSA patients in a previous trial. This means that pimavanserin could actually increase the respiratory arousal threshold by ˜50%.

A further series relates to patients with mild OSA. The conditions noted are these: 15 patients with mild OSA; cited from earlier work.
The subject of series [6] is OSA patients. Conditions: zopiclone 7.5 mg, 1 night, n=12; cited from earlier work.
Series [7] has as its system OSA patients. The conditions noted are these: zopiclone n=14 vs placebo n=16; 30 days; non-significant; cited from earlier work.
In series [8] the test system is OSA patients. The conditions noted are these: cited from earlier work. The source holds these as a separate data set.
Another series concerns OSA subjects. Kind of series: Tiagabine in 14 OSA subjects. The format is in vivo, human. From the text:
As described herein, drugs that increase sleep depth (and slow wave sleep (SWS) in particular) such as tiagabine or gabapentin could help the resolution of OSA. […] The pharmacological increase in slow wave sleep (SWS) could be an ideal mechanism for raising the arousal threshold to treat OSA, particularly since SWS seems to be a “protective state” against OSA. […] The reason for improvement likely relates to changes in the non-anatomical factors that contribute to OSA during SWS such as reduced arousability, thereby enabling a higher activation of upper airway dilator muscles. […] Thus, as described herein, drugs such as gabapentin that cause 20-60% increase of SWS^20,21, are ideal candidates for the treatment of OSA in association with atomoxetine.

For series [9] the following is noted: in vivo; cited from earlier work.
Setting [10] is: protriptyline 20 mg, 4 weeks, 5 obese men with severe OSA (Brownell).
Where [11] appears, read: zopiclone 7.5 mg, 21 healthy individuals and OSA patients.
Setting [12] is: seven patients with a low arousal threshold (Eckert).

Turning to `CNCCCC1c2ccccc2C=Cc2ccccc21` [protriptyline], the “success in reducing OSA severity / the AHI” value in the series with patients with OSA (listed as Protriptyline) is “without success”. In addition, the “success in reducing OSA severity / the AHI” value in the series on patients with OSA is given as “modest success”. Further, the “reduction in AHI from baseline” value in the series with OSA patients [1] (open label 4-week crossover trial, 9 patients (Hanzel)) is reported as 42%. For the same molecule, in the series with OSA patients [1] (setting [10]), the “AHI during NREM sleep” value is listed as “no change”; the “oxygen saturation and daytime sleepiness” value is “improvements”. For the same molecule, the “NREM AHI as a group” value with OSA patients [1] (protriptyline 20 mg, 14 days, 10 moderate-to-severe OSA patients (Whyte)) was “did not change”.

Take `CCN(CC)CC#CCOC(=O)C(O)(c1ccccc1)C1CCCCC1` (stereo not drawn) [oxybutynin]: in the series on OSA patients [2], the “NREM (atomoxetine) and REM (oxybutynin) specific AHI” value is on record as “did not respectively improve”; the “effect on ventilation during sleep” value is “minor effect on ventilation”; the “oxygen saturation / oxygen levels compared to placebo” value was “did not improve oxygen levels”; the “OSA severity (apnea hypopnea index, AHI)” value is listed as “did not systematically reduce OSA severity”.

For the molecule `CNCCCN1c2ccccc2CCc2ccccc21` [desipramine], the “airway collapsibility compared to placebo” value in series [3] (1 night, 14 OSA patients) is “less collapsible airway”. The “effect on OSA severity as a group” value in series [3] (1 night, 14 patients) is listed as “not significant”. Besides, in series [3] (normal controls), the “genioglossus activity during sleep” value is on record as “increased genioglossus activity” and the “upper airway collapsibility during sleep” value is reported as “reduced upper airway collapsibility”. Besides, the “success in reducing OSA severity / the AHI” value with patients with OSA is “modest success; also recorded: without success”.

For the molecule `Cc1ccc(-c2nc3ccc(C)cn3c2CC(=O)N(C)C)cc1` [zolpidem], in [4] (21 subjects with and without OSA, zolpidem 10 mg), the “increase in arousal threshold compared to placebo” value was ~30% and 25%. The “increase in median genioglossus muscle responsiveness compared to placebo” value in [4] (21 subjects, p=0.03) was 3 fold. Also, in [4] (zolpidem 10 mg, 21 individuals), the “genioglossus response to pharyngeal negative pressure compared to placebo” value is “increased”.

For `CC(C)COc1ccc(CNC(=O)N(Cc2ccc(F)cc2)C2CCN(C)CC2)cc1` [pimavanserin], the “increase of respiratory arousal threshold ascribed to pimavanserin” value with OSA patients [5] was around 50%.

Consider `CNCC[C@@H](Oc1ccccc1C)c1ccccc1` [atomoxetine], for which, in the series on patients with mild OSA, the AHI entry was “did not improve” and the daytime sleepiness result is “significantly improve”. Besides, the “success in reducing OSA severity / the AHI” value in the series on patients with OSA is reported as “modest success; also recorded: without success”. Moreover, in the series with OSA patients [2] (analysis of ventilatory parameters during all night), the “share of the improvement in ventilation during sleep accounted for” value was “at least 70%”. Further, in the series with OSA patients [2], the “NREM (atomoxetine) and REM (oxybutynin) specific AHI” value is given as “did not respectively improve”; the “effect on ventilation during sleep” value is given as “responsible for most of the ventilatory improvement”; the “oxygen saturation / oxygen levels compared to placebo” value was “improved oxygen saturation”; the “OSA severity (apnea hypopnea index, AHI)” value is “did not improve OSA severity”. Further, in the series on OSA patients [2] (nine OSA patients, atomoxetine p=0.03, combination p>0.7), the “reduction in arousal threshold vs placebo” value came out at 18%. Moreover, the “OSA severity (apnea hypopnea index, AHI)” value with OSA patients [2] (listed as Atomoxetine) is “did not systematically reduce OSA severity”.

For `CN1CCN(C(=O)OC2c3nccnc3C(=O)N2c2ccc(Cl)cn2)CC1` (stereo not drawn) [zopiclone], in the series with OSA patients [6], the “AHI compared to placebo” value is “did not significantly change” and the “increase in arousal threshold” value is listed as 20%. In the series on OSA patients [7], the “change in AHI from baseline” value is −25% and the “change in AHI from placebo” value is reported as −15%. In [4] (setting [11]), the AHI vs placebo entry is listed as “did not change” and the “arousal threshold vs placebo” value is listed as “significantly increased”.

Take `O=c1n(CCCN2CCN(c3cccc(Cl)c3)CC2)nc2ccccn12` [trazodone]: in the series with OSA patients [8] (setting [12]), the “AHI compared to placebo” value was “did not affect” and the “improvement of arousal threshold” value is recorded as 30%. In the series with OSA patients [8] (trazodone 100 mg before bedtime, eight OSA patients (Heinzer)), the “arousal threshold in response to hypercapnia” value was “increased”. Besides, the “reduction of AHI” value in the series with OSA patients [8] (trazodone 100 mg, 15 unselected OSA patients (Smales)) is recorded as 26%.

Take `Cc1ccsc1C(=CCCN1CCC[C@@H](C(=O)O)C1)c1sccc1C` [tiagabine]: in the series with OSA subjects, the “AHI or oxygen saturation during sleep” value is recorded as “without worsening” and the “increase in EEG slow wave activity” value worked out at 16%.

`NCC1(CC(=O)O)CCCCC1` [gabapentin]: the “increase of SWS (slow wave sleep)” value in series [9] was 20-60%.

These data come from patent US12558327B2, “Methods and compositions for treating sleep apnea” (The Brigham and Women's Hospital, Inc., priority 2019, dated 2026).
